According to patent US3954767A, “Piperazine salts of 2,5-dihydroxy benzene sulfonic acid mono- and diesters” (priority 1972, dated 1976):
Where a name gives a salt, the structure may show the parent alone.

test system: rats treated with Triton WR-1339; test: Hypolipemic action on the rat, Triton WR-1339 method; assay type: in vivo; conditions: Table VI; with respect to Triton WR-1339; 2 mMoles/Kg orally
Description: The above-mentioned Triton WR-1339 method was selected. The total cholesterol, triglycerides and total lipids were determined in the serum. The amount of Triton WR-1339 administered to the animals was 300 mg/kg. The amount of piperazine 2,5-dihydroxy benzene sulfonate mono-tosylate administered was 2 mMoles/Kg orally. The letter P signifies probability.
The above-mentioned Triton WR-1339 method was selected. The total cholesterol, triglycerides and total lipids were determined in the serum. The results obtained are given in Table V. The amount of Triton WR-1339 administered to the animals was 300 mg/Kg. The amount of the piperazine salt with one mole of the di-0-(p-chloro phenoxy isobutyrate) of 2,5-dihydroxy benzene sulfonic acid administered was 1 mMol/Kg orally. The letter P signifies probability.
In this Triton WR-1339 method, all the compounds are administered at a dose of 2 mMoles/Kg orally excepted those compounds in which is the residue of p-chlorophenoxy isobutyric acid, which are administered orally at a dose corresponding to 2 mMoles of R per Kg, i.e. the amount used is calculated on the basis of the residue R only.

| Structure (SMILES) | Percentage reduction of lipids: Cholesterol | Percentage reduction of lipids: Total Lipids | Percentage reduction of lipids: Triglycerides |
| --- | --- | --- | --- |
| O=C(Oc1ccc(OC(=O)c2ccccc2)c(S(=O)(=O)O)c1)c1ccccc1 [diethylamine 2,5-dihydroxybenzenesulfonate dibenzoate] [diethylamine 2.5-dihydroxybenzensulphonate dibenzoate] | 12% | 22% | 14% |
| O=C(Oc1ccc(OC(=O)c2ccccc2)c(S(=O)(=O)O)c1)c1ccccc1 [morpholine 2,5-dihydroxybenzenesulfonate dibenzoate] [morpholine 2.5-dihydroxybenzenesulphonate dibenzoate] | 12% | 21% | 17% |
| O=C(Oc1ccc(OC(=O)c2ccccc2)c(S(=O)(=O)O)c1)c1ccccc1 [piperazine 2,5-dihydroxybenzenesulfonate dibenzoate] [piperazine 2.5-dihydroxybenzenesulphonatedibenzoate] | 13% | 20% | 18% |
| O=C(Oc1ccc(OC(=O)c2ccccc2)c(S(=O)(=O)O)c1)c1ccccc1 [piperazine bis(2,5-dihydroxybenzene sulfonate dibenzoate)] [piperazine bis(2.5-dihydroxybenzenesulphonate dibenzoate)] | 9% | 16% | 14% |
| Cc1ccc(S(=O)(=O)Oc2ccc(O)c(S(=O)(=O)O)c2)cc1 [piperazine bis(2,5-dihydroxybenzenesulfonate monotosylate)] [piperazine bis(2.5-dihydroxybenzenesulphonate monotosylate)] | 11% | 17% | 25% |
| O=C(Oc1ccc(OC(=O)c2ccccc2)c(S(=O)(=O)O)c1)c1ccccc1 [piperidine 2,5-dihydroxybenzenesulfonate dibenzoate] [piperidine 2.5-dihydroxybenzenesulphonate dibenzoate] | 14% | 23% | 19% |
| Cc1ccc(S(=O)(=O)Oc2ccc(O)c(S(=O)(=O)O)c2)cc1 [piperidine bis(2,5-dihydroxybenzenesulfonate monotosylate)] [piperidine 2.5-dihydroxybenzenesulphonate monotosylate] | 15% | 33% | 26% |
| O=C(Oc1ccc(O)c(S(=O)(=O)O)c1)c1cccnc1 [pyridine 2,5-dihydroxybenzene sulfonate mono nicotinate] | 17% | 25% | 24% |

same assay, conditions: Table VI; with respect to Triton WR-1339; orally, 2 mMoles of R (p-chlorophenoxy isobutyric acid residue) per Kg

| Structure (SMILES) | Percentage reduction of lipids: Cholesterol | Percentage reduction of lipids: Total Lipids | Percentage reduction of lipids: Triglycerides |
| --- | --- | --- | --- |
| CC(C)(Oc1ccc(Cl)cc1)C(=O)Oc1ccc(OC(=O)C(C)(C)Oc2ccc(Cl)cc2)c(S(=O)(=O)O)c1 [calcium salt of di-O-(p-chloro phenoxy isobutyrate) of 2,5-d] [calcium salt of di-O-(p-chlorophenoxy isobutyrate) of 2,5-dihydroxy benzene sulfonic acid] | 27% | 29% | 33% |
| CC(C)(Oc1ccc(Cl)cc1)C(=O)Oc1ccc(O)c(S(=O)(=O)O)c1 [calcium salt of mono-O-(p-chloro phenoxy isobutyrate) of 2,5] [calcium salt of mono-O-(p-chlorophenoxy isobutyrate) of 2,5-dihydroxybenzene sulfonic acid] | 27% | 26% | 40% |
| CC(C)(Oc1ccc(Cl)cc1)C(=O)Oc1ccc(O)c(S(=O)(=O)O)c1 [di-salt of piperazine of mono-O-(p-chloro phenoxy isobutyrat] [di-salt of piperazine of mono-O-(p-chlorophenoxy isobutyrate) of 2,5-dihydroxy benzene sulfonic acid] | 16% | 26% | 31% |
| CC(C)(Oc1ccc(Cl)cc1)C(=O)Oc1ccc(O)c(S(=O)(=O)O)c1 [magnesium salt of mono-O-(p-chloro phenoxy isobutyrate) of 2] [magnesium salt of mono-O-(p-chlorophenoxy isobutyrate) of 2,5-dihydroxy benzene sulfonic acid] | 19% | 28% | 44% |
| CC(C)(Oc1ccc(Cl)cc1)C(=O)Oc1ccc(O)c(S(=O)(=O)O)c1 [mono-salt of piperazine of mono-O-(p-chloro phenoxy isobutyr] [mono-salt of piperazine of mono-O-(p-chlorophenoxy isobutyrate) of 2,5-dihydroxy benzene sulfonic acid] | 9% | 25% | 49% |
| CC(C)(Oc1ccc(Cl)cc1)C(=O)Oc1ccc(OC(=O)C(C)(C)Oc2ccc(Cl)cc2)c(S(=O)(=O)O)c1 [piperazine di-salt of di-O-(p-chloro phenoxy isobutyrate) of] [piperazine di-salt of di-O-(p-chlorophenoxy isobutyrate) of 2,5-dihydroxy benzene sulfonic acid] | 29% | 37% | 21% |
| CC(C)(Oc1ccc(Cl)cc1)C(=O)Oc1ccc(OC(=O)C(C)(C)Oc2ccc(Cl)cc2)c(S(=O)(=O)O)c1 [piperazine mono-salt of di-O-(p-chloro phenoxy isobutyrate) ] [piperazine mono-salt of di-O-(p-chlorophenoxy isobutyrate) of 2,5-dihydroxy benzene sulfonic acid] | 25% | 28% | 49% |

same assay, conditions: Table VI; with respect to Triton WR-1339; orally, 2 mMoles of R (p-chlorophenoxy isobutyric acid residue) per Kg; dihydrate

| Structure (SMILES) | Percentage reduction of lipids: Cholesterol | Percentage reduction of lipids: Total Lipids | Percentage reduction of lipids: Triglycerides |
| --- | --- | --- | --- |
| CC(C)(Oc1ccc(Cl)cc1)C(=O)Oc1ccc(O)cc1S(=O)(=O)O [magnesium 2-O-(p-chlorophenoxyisobutyryl) 2,5-dihydroxybenzene sulfonate dihydrate] | 18% | 27% | 21% |

same assay, conditions: Triton 300 mg/Kg + compound 1 mMol/Kg orally; 0,0025<P<0,005

| Structure (SMILES) | total cholesterol |
| --- | --- |
| CC(C)(Oc1ccc(Cl)cc1)C(=O)Oc1ccc(OC(=O)C(C)(C)Oc2ccc(Cl)cc2)c(S(=O)(=O)O)c1 [piperazine mono-salt of di-O-(p-chloro phenoxy isobutyrate) ] [piperazine mono-salt of di-O-(p-chlorophenoxy isobutyrate) of 2,5-dihydroxy benzene sulfonic acid] | 212,5 mg % ml of plasma |

same assay, conditions: Triton 300 mg/Kg + compound 1 mMol/Kg orally; 0,005<P<0,010

| Structure (SMILES) | total lipids | triglycerides |
| --- | --- | --- |
| CC(C)(Oc1ccc(Cl)cc1)C(=O)Oc1ccc(OC(=O)C(C)(C)Oc2ccc(Cl)cc2)c(S(=O)(=O)O)c1 [piperazine mono-salt of di-O-(p-chloro phenoxy isobutyrate) ] [piperazine mono-salt of di-O-(p-chlorophenoxy isobutyrate) of 2,5-dihydroxy benzene sulfonic acid] | 1503,8 mg % ml of plasma | 572,5 mg % ml of plasma |
